From US9278934B2, “Method for producing fine particles of aripiprazole anhydride crystals B” (OTSUKA PHARMACEUTICAL CO., LTD., priority 2011, dated 2016)

Test: Hygroscopicity: water content before and after 24 hours in a desiccator at 60° C. and humidity 100%
Type: physicochemical
Conditions: for Water content (%) after 24 hours: after 24 hours in a desiccator at a temperature of 60° C. and a humidity of 100%; for Water content (%) at the start: obtained crystals, before conditioning
Protocol: Aripiprazole anhydride crystals B have a low hygroscopicity; and, for example, maintain a water content of 0.4% or less, and further 0.1% or less, after 24 hours of conditioning in a desiccator set at a temperature of 60° C. and a humidity of 100%. Known methods for measuring water content can be used as long as they are commonly used for measuring the water content of crystals. For example, a method such as the Karl Fischer method can be used.
Fine particles of the crystals after heating treatment (drying) are the fine particles of anhydride crystals B of aripiprazole. These particles have the physicochemical properties (1) to (5) described above, and also have a low hygroscopicity; specifically, the water content thereof after 24 hours of conditioning in a desiccator adjusted to a temperature of 60° C. and a humidity of 100% is 0.4% or less, further 0.2% or less, and furthremore 0.1% or less.

| Structure (SMILES) | Water content (%) after 24 hours [%] | Water content (%) after 24 hours (listed as anhydride crystals B of aripiprazole) [%] | hygroscopicity (left to stand for 24 hours in a desiccator at 60° C. and a humidity of 100%) [%] | Water content (%) at the start [%] |
| --- | --- | --- | --- | --- |
| O=C1CCc2ccc(OCCCCN3CCN(c4cccc(Cl)c4Cl)CC3)cc2N1 [Aripiprazole anhydride crystals B, 7-{4-[4-(2,3-dichlorophenyl)-1-piperazinyl]butoxy}-3,4-dihydrocarbostyril] | ≤ 0.4 | ≤ 0.4 |  |  |
| O=C1CCc2ccc(OCCCCN3CCN(c4cccc(Cl)c4Cl)CC3)cc2N1 [Example 1, 7-{4-[4-(2,3-dichlorophenyl)-1-piperazinyl]butoxy}-3,4-dihydrocarbostyril] | 0.10 |  | < 4 | 0.11 |
| O=C1CCc2ccc(OCCCCN3CCN(c4cccc(Cl)c4Cl)CC3)cc2N1 [Example 2, 7-{4-[4-(2,3-dichlorophenyl)-1-piperazinyl]butoxy}-3,4-dihydrocarbostyril] | ≤ 0.01 |  |  | 0.01 |
| O=C1CCc2ccc(OCCCCN3CCN(c4cccc(Cl)c4Cl)CC3)cc2N1 [Example 3, 7-{4-[4-(2,3-dichlorophenyl)-1-piperazinyl]butoxy}-3,4-dihydrocarbostyril] | 0.17 |  |  | 0.08 |
